Patent US20230295088A1, “INSULIN SENSITIZERS FOR THE TREATMENT OF DIABETES MELLITUS” (University of Iowa Research Foundation, priority 2020, published 2023)
“Also recorded” adds a separate entry of the source.

Key:
[1] = biological target: T1, Unc119b (Homo sapiens, UniProt A6NIH7); experiment: Luminescence complementation based thermal shift assay, Unc119b-HiBiT; assay type: binding; settings: crude extract of Unc119b-HiBiT transfected cells, 10 minutes incubation, heated 3 minutes
T1 construct: expressed in transfected cells
T1 sequence (A6NIH7 whole entry, species assumed): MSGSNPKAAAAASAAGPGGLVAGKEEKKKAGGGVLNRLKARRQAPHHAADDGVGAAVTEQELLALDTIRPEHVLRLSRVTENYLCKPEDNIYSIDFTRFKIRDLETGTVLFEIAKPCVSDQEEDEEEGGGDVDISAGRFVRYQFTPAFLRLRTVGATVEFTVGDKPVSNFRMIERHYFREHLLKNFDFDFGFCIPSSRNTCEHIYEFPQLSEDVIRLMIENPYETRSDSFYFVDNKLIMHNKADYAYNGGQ
Source text: (§1) Identification of the molecular target of C59. Since the discovery of C59 as an insulin sensitizer was achieved using a phenotypic screen, the molecular target of the compound was unknown. To identify the target, a Proteome Integral Solubility Alteration (PISA) assay was used. […] To measure the shift in thermal stability, constructs coding for Unc119-HiBiT and Unc119b-HiBit were generated, thus allowing the quantitative detection of those proteins by adding LgBiT and furimazin to the lysates and measuring luminescence. Crude extract from cells transfected with Unc119-HiBiT or Unc119b-HiBiT, were incubated with DMSO or C59 for 10 minutes, aliquoted, heated for 3 minutes at the indicated temperature and allowed to cool down to room temperature before adding LgBiT and furimazin and reading luminescence on a plate reader.

[2] = system: Unc119 KO HBG4 cells; experiment: 3H-Deoxy-D-Glucose uptake in Unc119 KO HBG4 cells; assay type: cell-based, mouse
Experimental: (§2) Unc119 and Unc119b are important for the insulin sensitizing effect of C59. After identifying Unc119 proteins as molecular targets for C59, it was tested whether those proteins were responsible for the insulin sensitizing activity of C59. To this end Unc119 and Unc119b KO HBG4 cells were generated using CRISPR/Cas9 technology. For each of those cell lines two gRNA surrounding the start codon were used, thus resulting in a deletion of a fragment of the Unc119 genes that includes the ATG. Deletion of Unc119 and Unc119b in clonal cell lines were screened and verified by PCR (FIG. 4E). The effect of C59 on insulin-stimulated. […] To further test this finding, 3H-Deoxy-D-Glucose uptake in WT, Unc119 KO and Unc119b KO HBG4 cells treated with vehicle, insulin, C59 alone and C59 with insulin was measured.

[3] = system: Unc119b KO HBG4 cells; experiment: 3H-Deoxy-D-Glucose uptake in Unc119b KO HBG4 cells; assay type: cell-based, mouse
Experimental: as §2

[4] = biological target: T2, Unc119b (Mus musculus, UniProt Q8C4B4); experiment: Proteome Integral Solubility Alteration (PISA) assay, Unc119b; assay type: binding; set-up: dose or concentration left out as unconfirmed
T2 construct: endogenous in cells
T2 sequence (Q8C4B4 whole entry): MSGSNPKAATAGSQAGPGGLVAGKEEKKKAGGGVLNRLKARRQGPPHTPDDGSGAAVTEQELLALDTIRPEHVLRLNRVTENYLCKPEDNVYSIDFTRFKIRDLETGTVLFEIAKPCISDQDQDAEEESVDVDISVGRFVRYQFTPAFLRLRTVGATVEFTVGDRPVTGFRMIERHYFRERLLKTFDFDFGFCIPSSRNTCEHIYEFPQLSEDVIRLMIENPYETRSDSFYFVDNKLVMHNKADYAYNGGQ
Source text: as §1

[5] = biological target: T3, PPARg (Homo sapiens, UniProt P37231); experiment: Luminescent PPARg reporter assay in vitro; assay type: cell-based
T3 sequence (P37231 1-505): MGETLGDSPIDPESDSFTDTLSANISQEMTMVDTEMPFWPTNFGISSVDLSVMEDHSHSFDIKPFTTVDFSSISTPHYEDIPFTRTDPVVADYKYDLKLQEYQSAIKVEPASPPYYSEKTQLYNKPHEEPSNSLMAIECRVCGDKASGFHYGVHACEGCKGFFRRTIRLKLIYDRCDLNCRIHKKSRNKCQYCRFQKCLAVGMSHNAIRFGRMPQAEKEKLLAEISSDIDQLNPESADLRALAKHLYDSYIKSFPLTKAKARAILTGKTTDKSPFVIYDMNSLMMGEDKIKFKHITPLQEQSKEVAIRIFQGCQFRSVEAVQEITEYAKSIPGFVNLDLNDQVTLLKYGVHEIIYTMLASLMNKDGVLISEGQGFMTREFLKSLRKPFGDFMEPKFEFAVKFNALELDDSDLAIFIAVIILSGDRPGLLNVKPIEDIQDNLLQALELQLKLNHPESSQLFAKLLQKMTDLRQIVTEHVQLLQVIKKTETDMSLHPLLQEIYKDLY
Source text: C3 is not liver toxic and acts through a different mechanism than TZDs. […] Deleterious side effect or TZDs are due to their agonism of PPARg.

[6] = system: Unc119b KO HBG4 cells; experiment: Insulin-stimulated GLUT4 translocation in Unc119b KO HBG4 cells; assay type: cell-based, mouse
Experimental: as §2

[7] = system: WT HBG4 cells; experiment: 3H-Deoxy-D-Glucose uptake in WT HBG4 cells; assay type: cell-based, mouse
Experimental: as §2

[8] = system: Unc119 KO HBG4 cells; experiment: Insulin-stimulated GLUT4 translocation in Unc119 KO HBG4 cells; assay type: cell-based, mouse
Experimental: as §2

[9] = system: GLUT4 expressing tissues of DIO mice; experiment: PET/CT measurement of 18F-FDG uptake in DIO mice; assay type: in vivo, mouse; settings: HFD supplemented with C59 for two weeks
Experimental: C59 improves glucose uptake in storage tissues of DIO mice. Since insulin resistance results in a failure to transport glucose from the circulation to tissues that can use it as a source of energy or store it, it was tested whether treating insulin resistant DIO mice with C59 results in an increase in glucose uptake in GLUT4 expressing tissues. For this, insulin resistant DIO mice (fed a HFD for 10 weeks) were fed HFD or HFD supplemented with C59 for two weeks before injection of ^18F-FDG and uptake of the radioactive glucose tracer was measured by PET/CT.

[10] = system: diet-induced obese (DIO) mice; experiment: Glucose tolerance, fasting glucose and insulin in diet-induced obese (DIO) insulin-resistant mice; assay type: in vivo, mouse; settings: DIO mice, C59 treatment
Experimental: To test whether C3 improves glucose handling, WT mice were made insulin-resistant by feeding them a high fat diet (HFD) for a period of 10 weeks. After 10 weeks, mice were injected with vehicle. C3 (20 mg/kg), or the TZD rosiglitazone (20 mg/kg) for 2 weeks while remaining on the HFD. […] To further test the in vivo efficacy of C3, a glucose tolerance test (GTT) was perfromed.
To test whether C3 improves glucose handling, lean mice were injected with vehicle or C3 30 minutes before performing a glucose tolerance test. […] To further determine if C3 can reverse glucose intolerance, WT mice were made insulin-resistant by feeding them a high fat diet (HFD) for a period of 10 weeks. Diet induced obese (DIO) mice were then injected with vehicle or C3 for 2 weeks while remaining on HFD.

[11] = biological target: T4, Unc119 (Homo sapiens, UniProt Q13432); experiment: Luminescence complementation based thermal shift assay, Unc119-HiBiT; assay type: binding; settings: crude extract of Unc119-HiBiT transfected cells, 10 minutes incubation, heated 3 minutes
T4 construct: expressed in transfected cells
Source text: as §1

thermostability shift for Unc119b [1]: 6.7 C.
thermostability of Unc119b (PISA) ([4]; lysates (crude extract)): increased the thermostability
thermostability shift for Unc119 [11]: 6.6 C.
SMILES: O=C(Nc1ccc(Cl)c(Cl)c1)C12CC3CC(CC(C3)C1)C2 [Compound C59]
3H-Deoxy-D-Glucose uptake, compound alone ([2]; no insulin): did not stimulate
insulin stimulated 3H-Deoxy-D-Glucose uptake ([2]; with insulin): failed to do so
3H-Deoxy-D-Glucose uptake, compound alone ([3]; no insulin): did not stimulate
insulin stimulated 3H-Deoxy-D-Glucose uptake ([3]; with insulin): failed to do so
thermostability of Unc119b (PISA) ([4]; live cells, vs DMSO and C29): increased the thermostability; also recorded: concentration dependent increased thermostability
PPARg agonist activity [5]: neither C3 nor C59 have PPARγ agonist activity
insulin-stimulated GLUT4 translocation [6]: failed to enhance
3H-Deoxy-D-Glucose uptake, compound alone ([7]; no insulin): did not stimulate
insulin stimulated 3H-Deoxy-D-Glucose uptake ([7]; with insulin): significantly increased
insulin-stimulated GLUT4 translocation [8]: failed to enhance
18F-FDG uptake in BAT [9]: significantly increased
18F-FDG uptake in WAT [9]: significantly increased
18F-FDG uptake in heart tissues [9]: significantly increased
18F-FDG uptake in skeletal muscles [9]: significantly increased
glucose handling in DIO mice [10]: drastically improves
